According to US20190315823A1, “SMALL CATIONIC ANTI-BIOFILM AND IDR PEPTIDES” (priority 2013, published 2019):
Ends that are not written are not given here.

Legend:
[1] = tested on: methicillin resistant Staphylococcus aureus (MRSA) biofilm; conditions: approximate peptide concentration […] (around 3 μg/ml); compared to untreated samples
How it was run: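 Static biofilm assay: 1/100 dilutions of overnight cultures grown in BM2 medium (pH 7, glucose, Casamino Acids) or Luria Broth with peptide added at time zero. After 22–46 h, adherent biofilm was stained with crystal violet and read at 595 nm. Some peptides were also tested on K. pneumoniae under flow in a Bioflux system.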

[2] = tested on: human peripheral blood mononuclear cells (MCP-1); experiment: SPOT-synthesized derivative screen: production of chemokine MCP-1; format: cell-based; conditions: Table 12, No LPS, human PBMC, peptide at ~18-24 μM; for MCP1: background subtracted 139 (HH2 derivatives), 170 (1018 derivatives), 242 (1002 and hybrid peptides) pg/ml
How it was run: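 PBMC from heparinized healthy-donor venous blood, Ficoll-separated, cultured at 0.75 to 1×10^6 cells/ml, 37 °C, 5% CO2, under the treatment regimens. MCP-1 in cell-free supernatants measured by capture ELISA.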

[3] = tested on: LPS-stimulated human peripheral blood mononuclear cells (IL1-β); format: cell-based; conditions: Table 12, cells stimulated with 10 ng/ml LPS; for IL1β Production: LPS alone 1313 (HH2 derivatives), 1927 (1018 derivatives), 2455 (1002 and hybrid peptides) pg/ml

| Substance | % Biofilm inhibition [1] [%] | Fold increase in MCP1 cf. untreated cells [2] | MCP1 [2] [pg/mL] | Fold change in IL1β relative to no peptide LPS stimulated cells [3] | IL1β Production [3] [pg/mL] |
| --- | --- | --- | --- | --- | --- |
| 1018-L11: single substituted 1018 peptide (VRLIVAVRIWLR-NH2) [Peptide 1018-L11] | 4 | 1.7 | 118 | 1.12 | 1467 |
| 1002-V8: single substituted 1002 peptide (VQRWLIVVRIRK-NH2) [Peptide 1002-V8] | 56 | 7.1 | 1468.2 | 0.08 | 198 |
| 1002-Q4: single substituted 1002 peptide (VQRQLIVWRIRK-NH2) [Peptide 1002-Q4] | 36 | 0.9 | -28.8 | 0.47 | 1165 |
| 1018-K2: single substituted 1018 peptide (VKLIVAVRIWRR-NH2) [Peptide 1018-K2] | 68 | 1.5 | 92 | 0.10 | 127 |
| 1002-R5: single substituted 1002 peptide (VQRWRIVWRIRK-NH2) [Peptide 1002-R5] | 62 | 0.9 | -36.2 | 0.14 | 349 |
| HH2-A3: single substituted HH2 peptide (VQARIRVAVIRA-NH2) | 52 | 1.3 | 59 | 1.44 | 1886 |
| 1002-A12: single substituted 1002 peptide (VQRWLIVWRIRA-NH2) [Peptide 1002-A12] | 37 | 1.4 | 91.3 | 0.05 | 127 |
| 1002-K3: single substituted 1002 peptide (VQKWLIVWRIRK-NH2) [Peptide 1002-K3] | 61 | 3.4 | 576.2 | 0.06 | 137 |
| HH2-A9: single substituted HH2 peptide (VQLRIRVAAIRA-NH2) | 51 | 1.9 | 157 | 1.46 | 1923 |
| HH2-Q11: single substituted HH2 peptide (VQLRIRVAVIQA-NH2) | 63 | 17 | 2759 | 0.78 | 1020 |
| 1002-G2: single substituted 1002 peptide (VGRWLIVWRIRK-NH2) [Peptide 1002-G2] | 74 | 4.7 | 891.9 | 0.05 | 127 |
| 1002-Q9: single substituted 1002 peptide (VQRWLIVWQIRK-NH2) [Peptide 1002-Q9] | 41 | 7.2 | 1514.2 | 0.05 | 127 |
| 1018-R9: single substituted 1018 peptide (VRLIVAVRRWRR-NH2) [Peptide 1018-R9] | 59 | 0.9 | -10 | 0.24 | 310 |
